# System: 229E human corona virus (hCoV)
# Test: 229E live virus assay (CPE, ATPlite readout in MRC-5 cells)
# Type: cell-based, hCoV-229E
# Conditions: Human coronavirus 229E, MRC5, hCoV-229E live virus, MOI 0.05, ATPlite readout, run in duplicate
row,Compound,EC50 [nM]
1,CC(C)C[C@@H](C(=O)N1C[C@]2(C[C@H]1C(=O)CO)C(=O)Nc1ccccc12)N(C)C(=O)c1cc2c(F)cc(F)cc2[nH]1 [Example 157],100 to 1000
2,CC(C)C[C@@H](C(=O)N1C[C@]2(C[C@H]1C(=O)CO)C(=O)Nc1ccccc12)N(C)C(=O)c1cc2c(F)cc(F)c(F)c2[nH]1 [Example 158],100 to 1000
3,CC(C)C[C@@H](C(=O)N1C[C@]2(C[C@H]1C(=O)CCl)C(=O)Nc1ccccc12)N(C)C(=O)c1cc2c(F)cc(F)c(F)c2[nH]1 [Example 159],> 1000
4,CC(C)C[C@@H](C(=O)N1C[C@]2(C[C@H]1C#N)C(=O)Nc1ccccc12)N(C(=O)OCc1ccccc1)C(C)C [Example 160],> 1000
5,CC(C)N(C(=O)OC(C)(C)C)[C@@H](Cc1ccccc1)C(=O)N1C[C@]2(C[C@H]1C#N)C(=O)Nc1ccccc12 [Example 161],> 1000
6,CC(C)C[C@@H](C(=O)N1C[C@]2(C[C@H]1C#N)C(=O)Nc1ccccc12)N(C)C(=O)c1cccc(Cl)c1 [Example 167],< 100
7,CC(C)C[C@@H](C(=O)N1C[C@]2(C[C@H]1C#N)C(=O)Nc1ccccc12)N(C)C(=O)c1ccc(Cl)cc1Cl [Example 168],< 100
8,CC(C)C[C@@H](C(=O)N1C[C@]2(C[C@H]1C#N)C(=O)Nc1ccccc12)N(C)C(=O)c1c(Cl)ccc(Cl)c1F [Example 169],< 100
9,COc1ccc(Cl)cc1C(=O)N(C)[C@@H](CC(C)C)C(=O)N1C[C@]2(C[C@H]1C#N)C(=O)Nc1ccccc12 [Example 170],< 100
10,CC(C)C[C@@H](C(=O)N1C[C@]2(C[C@H]1C#N)C(=O)Nc1ccccc12)N(C)C(=O)c1cc(Cl)c(F)cc1F [Example 171],< 100
11,CC(C)C[C@@H](C(=O)N1C[C@]2(C[C@H]1C#N)C(=O)Nc1ccccc12)N(C)C(=O)c1cc(Cl)cc(Cl)c1 [Example 172],< 100
12,CC(C)C[C@@H](C(=O)N1C[C@]2(C[C@H]1C#N)C(=O)Nc1ccccc12)N(C)C(=O)c1cc(F)cc(Cl)c1 [Example 173],< 100
13,CC(C)C[C@@H](C(=O)N1C[C@]2(C[C@H]1C#N)C(=O)Nc1ccccc12)N(C)C(=O)c1ccc(Cl)c(C(F)(F)F)c1 [Example 174],< 100
14,CC(C)C[C@@H](C(=O)N1C[C@]2(C[C@H]1C#N)C(=O)Nc1ccccc12)N(C)C(=O)c1ccc(Cl)c(F)c1F [Example 175],< 100
15,CC(C)C[C@@H](C(=O)N1C[C@]2(C[C@H]1C#N)C(=O)Nc1ccccc12)N(C)C(=O)c1ccc(F)c(C(F)(F)F)c1 [Example 177],< 100
16,CC(C)C[C@@H](C(=O)N1C[C@]2(C[C@H]1C#N)C(=O)Nc1ccccc12)N(C)C(=O)c1ccc(F)c(F)c1 [Example 178],< 100
17,CC(C)C[C@@H](C(=O)N1C[C@]2(C[C@H]1C#N)C(=O)Nc1ccccc12)N(C)C(=O)c1ccc(OC(F)(F)F)c(F)c1 [Example 179],< 100
18,COc1ccc(C(=O)N(C)[C@@H](CC(C)C)C(=O)N2C[C@]3(C[C@H]2C#N)C(=O)Nc2ccccc23)cc1C(F)(F)F [Example 181],< 100
19,COc1ccc(C(=O)N(C)[C@@H](CC(C)C)C(=O)N2C[C@]3(C[C@H]2C#N)C(=O)Nc2ccccc23)cc1F [Example 182],< 100
20,CC(C)C[C@@H](C(=O)N1C[C@]2(C[C@H]1C#N)C(=O)Nc1ccccc12)N(C)C(=O)c1c(Cl)cc(Cl)cc1Cl [Example 185],< 100
21,CC(C)C[C@@H](C(=O)N1C[C@]2(C[C@H]1C#N)C(=O)Nc1ccccc12)N(C)C(=O)c1c(Cl)cc(F)cc1Cl [Example 186],< 100
22,CC(C)C[C@@H](C(=O)N1C[C@]2(C[C@H]1C#N)C(=O)Nc1ccccc12)N(C)C(=O)c1cc(Cl)cc(C#N)c1 [Example 187],< 100
23,CC(C)C[C@@H](C(=O)N1C[C@]2(C[C@H]1C#N)C(=O)Nc1ccccc12)N(C)C(=O)c1cccc(OC(F)F)c1 [Example 188],< 100

row,Compound,EC50 [nM]
1,CC(C)C[C@@H](C(=O)N1C[C@]2(C[C@H]1C#N)C(=O)Nc1ccccc12)N(C)C(=O)c1cccc(OC(F)(F)F)c1 [Example 189],< 100
2,CC(C)C[C@@H](C(=O)N1C[C@]2(C[C@H]1C#N)C(=O)Nc1ccccc12)N(C)C(=O)c1ccc2c(c1)OC(F)(F)O2 [Example 190],< 100
3,COc1ccnc(C(=O)N(C)[C@@H](CC(C)C)C(=O)N2C[C@]3(C[C@H]2C#N)C(=O)Nc2ccccc23)c1 [Example 192],< 100
4,COc1ccc(C(=O)N(C)[C@@H](CC(C)C)C(=O)N2C[C@]3(C[C@H]2C#N)C(=O)Nc2ccccc23)nc1 [Example 193],< 100
5,CC(C)C[C@@H](C(=O)N1C[C@]2(C[C@H]1C#N)C(=O)Nc1ccccc12)N(C)C(=O)c1ccncc1 [Example 194],< 100
6,CC(C)C[C@@H](C(=O)N1C[C@]2(C[C@H]1C#N)C(=O)Nc1ccccc12)N(C)C(=O)c1cncc(C(F)(F)F)c1 [Example 195],< 100
7,CC(C)C[C@@H](C(=O)N1C[C@]2(C[C@H]1C#N)C(=O)Nc1ccccc12)N(C)C(=O)c1cncc(F)c1 [Example 196],< 100
8,CC(C)C[C@@H](C(=O)N1C[C@]2(C[C@H]1C#N)C(=O)Nc1ccccc12)N(C)C(=O)c1cc(F)ccn1 [Example 197],< 100
9,CC(C)C[C@@H](C(=O)N1C[C@]2(C[C@H]1C#N)C(=O)Nc1ccccc12)N(C)C(=O)c1ccc(F)cn1 [Example 198],< 100
10,CC(C)C[C@@H](C(=O)N1C[C@]2(C[C@H]1C#N)C(=O)Nc1ccccc12)N(C)C(=O)c1cccc(N)n1 [Example 199],< 100
11,CC(C)C[C@@H](C(=O)N1C[C@]2(C[C@H]1C#N)C(=O)Nc1ccccc12)N(C)C(=O)c1cnccn1 [Example 200],< 100
12,CC(C)C[C@@H](C(=O)N1C[C@]2(C[C@H]1C#N)C(=O)Nc1ccccc12)N(C)C(=O)c1cn(C)cn1 [Example 201],< 100
13,CC(C)C[C@@H](C(=O)N1C[C@]2(C[C@H]1C#N)C(=O)Nc1ccccc12)N(C)C(=O)c1ccn[nH]1 [Example 202],< 100
14,CC(C)C[C@@H](C(=O)N1C[C@]2(C[C@H]1C#N)C(=O)Nc1ccccc12)N(C)C(=O)c1ccnn1C [Example 203],< 100
15,CC(C)C[C@@H](C(=O)N1C[C@]2(C[C@H]1C#N)C(=O)Nc1ccccc12)N(C)C(=O)c1ccn(C)n1 [Example 204],< 100
16,CC(C)C[C@@H](C(=O)N1C[C@]2(C[C@H]1C#N)C(=O)Nc1ccccc12)N(C)C(=O)c1nc2ccccc2[nH]1 [Example 205],< 100
17,CC(C)C[C@@H](C(=O)N1C[C@]2(C[C@H]1C#N)C(=O)Nc1ccccc12)N(C)C(=O)c1nc2ccccc2s1 [Example 206],< 100
18,CC(C)C[C@@H](C(=O)N1C[C@]2(C[C@H]1C#N)C(=O)Nc1ccccc12)N(C)C(=O)c1cc2ccccc2s1 [Example 207],< 100
19,CC(C)C[C@@H](C(=O)N1C[C@]2(C[C@H]1C#N)C(=O)Nc1ccccc12)N(C)C(=O)c1cc2ccccc2o1 [Example 208],< 100
20,CC(C)C[C@@H](C(=O)N1C[C@]2(C[C@H]1C#N)C(=O)Nc1ccccc12)N(C)C(=O)c1cc2sccc2[nH]1 [Example 209],< 100
21,CC(C)C[C@@H](C(=O)N1C[C@]2(C[C@H]1C#N)C(=O)Nc1ccccc12)N(C)C(=O)c1ccc2ncccc2c1 [Example 210],< 100
22,CC(C)C[C@@H](C(=O)N1C[C@]2(C[C@H]1C#N)C(=O)Nc1ccccc12)N(C)C(=O)c1ccc2ccccc2n1 [Example 211],< 100
